What was measured:
IDO1 [1] = biological target: T1, IDO1 (Homo sapiens, UniProt P14902); experiment: IDO1 Human whole blood Assay; format: cell-based; design: Human whole blood was drawn in sodium heparin coated tubes from healthy internal donors; from tissue; host or cells: Human whole blood from healthy donors, stimulated with LPS and IFNγ; conditions: LPS and IFNγ 100 ng/mL, 18 h, kynurenine by LC/MS/MS
Experimental: Compounds to be tested were serially diluted in ten 3-fold steps in DMSO starting from 10 mM. 3 μL of compound dilutions or DMSO alone were then dispensed from the dilution plate into a polypropylene 96-well assay plate containing 97 μL of RPMI using an Echo 555 acoustic liquid handler (Labcyte). LPS and IFNγ was prepared in RPMI to a 10× of final conc. (1000 ng/mL), final concentration is 100 ng/mL.
Human whole blood was drawn in sodium heparin coated tubes from healthy internal donors. Two hundred forty μL of blood was transferred to each of the wells of a v-bottom 96 well plate. Thirty μL of compound was transferred from intermediate dilution plate, and incubated for 15 min. Thirty μL from stimulants was then transferred to blood and mixed thoroughly. Plate was covered with breathable membrane and incubated at 37° C. for overnight (18 h).
On day 2 isotope labeled standard of kynurenine and tryptophan was made in water at 10× concentration and 30 μL was added to the blood at 3 μM final concentration. The assay plates were centrifuged at 300×G for 10 min with no brake to separate plasma from red blood cells. Sixty μL of plasma samples was removed without disturbing red blood cells. Plasma was diluted with RPMI in 1:1 ratio and proteins were precipitated out with two volume of acetonitrile. The plates were centrifuged at 4000×G for 60 min. Twenty μL of supernatant was carefully transferred to a 384 well plate containing 40 μL of 0.1% formic acid in water and analyzed by LC/MS/MS.
LC/MS/MS analyses were performed using Thermo Fisher's LX4-TSQ Quantum Ultra system. This system consists of four Agilent binary high-performance liquid chromatography (HPLC) pumps and a TSQ Quantum Ultra triple quadruple MS/MS instrument. For each sample, 5 μL were injected onto an Atlantis T3 column (2.1 mm×150 mm, 3 μm particle size) from Waters. The mobile phase gradient pumped at 0.8 mL/min was used to elute the analytes from the column at 25° C. The elution started at 0% B increasing linearly to 25% B at 6.5 min, holding at 25% for 1 min, re-equilibrating to 10 min. Mobile phase A consisted of 0.1% formic acid in water. Mobile phase B consisted of 0.1% of formic acid in acetonitrile. Data was acquired in positive mode using a HESI interface. The operational parameters for the TSQ Quantum Ultra instrument were a spray voltage of 4000 V, capillary temperature of 380° C., vaporizer temperature 400° C., shealth gas 60 arbitrary units, Aux gas 20 arbitrary units, tube lens 85 and collision gas 1.2 mTorr. SRM chromatograms of kynurenine (Q1: 209.2>Q3:94.0) and internal standard (Q1: 215.3>Q3:98.2) were collected for 90 sec. The peak area was integrated by Xcalibur Quan software. The ratios between the kynurenine generated in the reaction and 2D6-Kynurenine spiked-in internal standard were used to generate percentage inhibition and IC50 values. Compounds were titrated and IC50's were calculated by 4 parameter sigmoidal curve fitting formula.
The biological activity data of selective compounds using the IDO1 human whole blood assay described above are summarized in the table below.

IDO1 [2] = biological target: T1, IDO1; experiment: IDO1 Cellular Assay in Hela Cells Stimulated with IFNγ; format: cell-based; conditions: IFNγ 100 ng/mL, 300 uM L-tryptophan, about 48 hours, fluorescence readout, read-out: IDO1 HELA Cell Assay, IC50
Method in brief: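 HeLa cells stimulated with 100 ng/mL IFNγ, supplemented with 300 uM L-tryptophan, incubated 48 h at 37° C with ten 3-fold compound dilutions. Unstimulated cells served as Max-E control. Kynurenine detected by fluorescence (ex 400/em 510 nm) after overnight methyl isonipecotate reaction; IC50 by four-parameter logistic fit.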

T1 sequence (P14902 whole entry): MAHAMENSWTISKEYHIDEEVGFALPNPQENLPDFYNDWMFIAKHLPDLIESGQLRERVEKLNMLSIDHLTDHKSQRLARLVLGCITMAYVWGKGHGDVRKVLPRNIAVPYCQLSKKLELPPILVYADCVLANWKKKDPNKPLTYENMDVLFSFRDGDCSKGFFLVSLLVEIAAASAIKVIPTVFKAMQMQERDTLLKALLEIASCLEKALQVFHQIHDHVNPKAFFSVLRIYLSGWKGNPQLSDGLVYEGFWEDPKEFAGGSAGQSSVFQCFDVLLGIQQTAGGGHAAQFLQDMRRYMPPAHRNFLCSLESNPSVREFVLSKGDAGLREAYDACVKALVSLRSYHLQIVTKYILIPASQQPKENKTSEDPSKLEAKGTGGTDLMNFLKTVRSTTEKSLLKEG

SMILES | IC50 (IDO1 [1]) | IC50 (IDO1 [2])
CC(C(=O)Nc1ccc(F)cc1)C12CC(NC(=O)c3cccc(Cl)c3)(C1)C2 (single isomer, unassigned) [Example 1, 3-Chloro-N-(3-(1-((4-fluorophenyl)amino)-1-oxopropan-2-yl)bicyclo[1.1.1]pentan-1-yl)benzamide] | 113 nM | 3.05 nM
CC(C(=O)Nc1ccc(Cl)cc1)C12CC(NC(=O)c3cccc(Cl)c3)(C1)C2 (single isomer, unassigned) [Example 7, 3-Chloro-N-(3-(1-((4-chlorophenyl)amino)-1-oxopropan-2-yl)bicyclo [1.1.1]pentan-1-yl) Benzamide] | 48.2 nM | 1.05 nM
CC(C(=O)Nc1ccc(F)cc1)C12CC(NC(=O)c3ccc(Cl)c(Cl)c3)(C1)C2 (single isomer, unassigned) [Example 8, 3,4-dichloro-N-(3-(1-((4-fluorophenyl)amino)-1-oxopropan-2-yl)bicyclo[1.1.1]pentan-1-yl)benzamide] | 781 nM | 3.1 nM
CC(C(=O)Nc1ccc(F)cc1)C12CC(NC(=O)c3ccc(Cl)c(Cl)c3)(C1)C2 (single isomer, unassigned) [Example 9, 3,4-dichloro-N-(3-(1-((4-fluorophenyl)amino)-1-oxopropan-2-yl)bicyclo[1.1.1]pentan-1-yl)benzamide] | 924 nM | 1.55 nM
CC(C(=O)Nc1ccc(Cl)c(F)c1)C12CC(NC(=O)c3cccc(Cl)c3)(C1)C2 (single isomer, unassigned) [Example 11, 3-chloro-N-(3-(1-((4-chloro-3-fluorophenyl)amino)-1-oxopropan-2-yl)bicyclo[1.1.1]pentan-1-yl)benzamide] | 525 nM | 1.57 nM
CC(C(=O)Nc1ccc(F)nc1)C12CC(NC(=O)c3ccc(Cl)c(Cl)c3)(C1)C2 (single isomer, unassigned) [Example 14, 3,4-dichloro-N-(3-(1-((6-fluoropyridin-3-yl)amino)-1-oxopropan-2-yl)bicyclo[1.1.1]pentan-1-yl)benzamide] | 406 nM | 6.16 nM
CC(C(=O)Nc1ccc(Cl)nc1)C12CC(NC(=O)c3ccc(Cl)c(Cl)c3)(C1)C2 (single isomer, unassigned) [Example 15, 3,4-dichloro-N-(3-(1-((6-chloropyridin-3-yl)amino)-1-oxopropan-2-yl)bicyclo[1.1.1]pentan-1-yl)benzamide] | 1100 nM | 4.46 nM
CC(C(=O)Nc1ccc(Cl)nc1)C12CC(NC(=O)c3cccc(Cl)c3)(C1)C2 (single isomer, unassigned) [Example 17, 3-chloro-N-(3-(1-((6-chloropyridin-3-yl)amino)-1-oxopropan-2-yl)bicyclo[1.1.1]pentan-1-yl)benzamide] | 179 nM | 5.26 nM
O=C(NC12CC(C3(C(=O)Nc4ccc(F)cc4)CCC3)(C1)C2)c1ccc(Cl)c(Cl)c1 [Example 5, 3,4-Dichloro-N-(3-(1-((4-fluorophenyl)carbamoyl)cyclobutyl)bicyclo[1.1.1]pentan-1-yl)benzamide] | 44.7 nM | 2.12 nM
O=C(NC12CC(C3(NC(=O)c4ccc(F)cc4)CC3)(C1)C2)c1ccc(Cl)c(Cl)c1 [Example 24, 3,4-Dichloro-N-(3-(1-(4-fluorobenzamido)cyclopropyl)bicyclo[1.1.1]pentan-1-yl)benzamide] | 401 nM | 4.13 nM
Cc1ccc(C(=O)NC23CC([C@@H](C)C(=O)Nc4ccc(F)cc4)(C2)C3)cc1Cl [Example 36, 3-chloro-N-[3-[(1R)-2-(4-fluoroanilino)-1-methyl-2-oxo-ethyl]-1-bicyclo[1.1.1]pentanyl]-4-methyl-benzamide] | 138 nM | 2.14 nM
Cc1cc(C(=O)NC23CC([C@@H](C)C(=O)Nc4ccc(F)cc4)(C2)C3)ccc1F [Example 46, 4-fluoro-N-[3-[(1R)-2-(4-fluoroanilino)-1-methyl-2-oxo-ethyl]-1-bicyclo[1.1.l]pentanyl]-3-methyl-benzamide] | 139 nM | 2.12 nM
C[C@H](C(=O)Nc1ccc(F)cc1)C12CC(NC(=O)c3ccc(Cl)cc3F)(C1)C2 [Example 52, 4-chloro-2-fluoro-N-[3-[(1S)-2-(4-fluoroanilino)-1-methyl-2-oxo-ethyl]-1-bicyclo[1.1.1]pentanyl]benzamide] | 53.3 nM | 2.5 nM
C[C@H](C(=O)Nc1ccc(F)cc1)C12CC(NC(=O)c3cc(Cl)ccc3F)(C1)C2 [Example 56, 5-chloro-2-fluoro-N-[3-[(1S)-2-(4-fluoroanilino)-1-methyl-2-oxo-ethyl]-1-bicyclo[1.1.1]pentanyl]benzamide] | 328 nM | 2.51 nM
C[C@H](C(=O)Nc1ccc(F)cc1)C12CC(NC(=O)OC3CCCC3)(C1)C2 [Example 77, cyclopentyl (S)-(3-(1-((4-fluorophenyl)amino)-1-oxopropan-2-yl)bicyclo[1.1.1]pentan-1-yl)carbamate] | 452 nM | 
O=C(NC12CC(C3(C(=O)Nc4ccc(F)cc4)CC3)(C1)C2)c1ccc(Cl)c(Cl)c1 [Example 100, 3,4-Dichloro-N-(3-(1-((4-fluorophenyl)carbamoyl)cyclopropyl)bicyclo[1.1.1]pentan-1-yl)benzamide] | 454 nM | 3.35 nM
C[C@H](C(=O)Nc1ccc(F)cc1)C12CC(NC(=O)c3cc(F)c(F)c(F)c3)(C1)C2 [Example 145, (S)-3,4,5-trifluoro-N-(3-(1-((4-fluorophenyl)amino)-1-oxopropan-2-yl)bicyclo[1.1.1]pentan-1-yl)benzamide] | 49 nM | 3.04 nM
Cc1cc(C(=O)NC23CC([C@H](C)C(=O)Nc4ccc(F)cc4)(C2)C3)ccc1C#N [Example 151, (S)-4-cyano-N-(3-(1-((4-fluorophenyl)amino)-1-oxopropan-2-yl)bicyclo[1.1.1]pentan-1-yl)-3-methylbenzamide] |  | 55.6 nM
C[C@H](C(=O)Nc1ccc(F)cc1)C12CC(NC(=O)c3cccc(C(F)(F)F)n3)(C1)C2 [Example 152, (S)-N-(3-(1-((4-fluorophenyl)amino)-1-oxopropan-2-yl)bicyclo[1.1.1]pentan-1-yl)-6-(trifluoromethyl)picolinamide] |  | 34.8 nM

Reference: US11478461B2, “[1.1.1] bicyclo compounds as indoleamine 2,3-dioxygenase inhibitors” (Merck Sharp & Dohme Corp., priority 2018, dated 2022)
